Experimental data as given in patent publication EP1027361B1, “6,11-BRIDGED ERYTHROMYCIN DERIVATIVES” (Abbott Laboratories, priority 1997, dated 1999).

Key:
Test in all cases: in vitro antibacterial activity, agar dilution MIC
Assay type in all cases: cell-based
[1] = system: Staphylococcus aureus ATCC 6538P; parameters: unit not given here; details: organism code AA, BHI agar, 35-37 °C, 20 to 24 hours
Method: (§1) Erythromycin A was used for this purpose.
(§2) After incubation, each plate was visually inspected.

[2] = system: Streptococcus agalactiae CMX 508; parameters: unit not given here; details: organism code KK, BHI agar, 35-37 °C, 20 to 24 hours
Method: as §1, §2

[3] = system: Streptococcus bovis A-5169; parameters: unit not given here; details: organism code JJ, BHI agar, 35-37 °C, 20 to 24 hours
Method: as §1, §2

[4] = system: Streptococcus pyogenes EES61; parameters: unit not given here; details: organism code LL, BHI agar, 35-37 °C, 20 to 24 hours
Method: as §1, §2

[5] = system: Streptococcus Pheumoniae ATCC6303; parameters: unit not given here; details: organism code XX, BHI agar, 35-37 °C, 20 to 24 hours
Method: as §1, §2

[6] = system: Staphylococcus aureus A-5278; details: organism code CC, BHI agar, 35-37 °C, 20 to 24 hours
Method: (§3) Representative compounds of the present invention were assayed in vitro for antibacterial activity as follows: Twelve petri dishes containing successive aqueous dilutions of the test compound mixed with 10 mL of sterilized Brain Heart Infusion (BHI) agar (Difco 0418-01-5) were prepared. Each plate was inoculated with 1:100 (or 1:10 for slow-growing strains, such as Micrococcus and Streptococcus) dilutions of up to 32 different microorganisms, using a Steers replicator block. […] In addition, a control plate, using BHI agar containing no test compound, was prepared and incubated at the beginning and end of each test
(§4) An additional plate containing a compound having known susceptibility patterns for the organisms being tested and belonging to the same antibiotic class as the test compound was also prepared and incubated as a further control, as well as to provide test-to-test comparability.
(§5) After incubation, each plate was visually inspected. The minimum inhibitory concentration (MIC) was defined as the lowest concentration of drug yielding no growth, a slight haze, or sparsely isolated colonies on the inoculum spot as compared to the growth control.

Escherichia coli DC-2 = details: organism code SS, BHI agar, 35-37 °C, 20 to 24 hours
Method: as §3, §4, §5

[7] = system: Streptococcus Pheumoniae 5979; details: organism code ZZ, BHI agar, 35-37 °C, 20 to 24 hours
Method: as §3, §4, §5

[8] = system: Staphylococcus aureus 1775; details: organism code GG, BHI agar, 35-37 °C, 20 to 24 hours
Method: as §3, §4, §5

[9] = system: Streptococcus pyogenes 930; details: organism code MM, BHI agar, 35-37 °C, 20 to 24 hours
Method: as §3, §4, §5

Candida albicans CCH 442 = details: organism code TT, BHI agar, 35-37 °C, 20 to 24 hours
Method: as §3, §4, §5

[10] = system: Streptococcus pyogenes PIU 2548; details: organism code NN, BHI agar, 35-37 °C, 20 to 24 hours
Method: as §3, §4, §5

Escherichia coli JUHL = details: organism code QQ, BHI agar, 35-37 °C, 20 to 24 hours
Method: as §1, §2

[11] = system: Streptococcus Pheumoniae 5649; details: organism code ZZA, BHI agar, 35-37 °C, 20 to 24 hours
Method: as §1, §2

[12] = system: Staphylococcus aureus CMX 642A; details: organism code DD, BHI agar, 35-37 °C, 20 to 24 hours
Method: as §1, §2

[13] = system: Micrococcus luteus ATCC 4698; details: organism code PP, BHI agar, 35-37 °C, 20 to 24 hours
Method: as §1, §2

[14] = system: Nocardia Asteroides ATCC9970; details: organism code VV, BHI agar, 35-37 °C, 20 to 24 hours
Method: as §1, §2

[15] = system: Enterococcus faecium ATCC 8043; details: organism code II, BHI agar, 35-37 °C, 20 to 24 hours
Method: as §1, §2

[16] = system: Haemophilis Influenzae DILL AMP R; details: organism code WW, BHI agar, 35-37 °C, 20 to 24 hours
Method: as §1, §2

[17] = system: Micrococcus luteus ATCC 9341; details: organism code OO, BHI agar, 35-37 °C, 20 to 24 hours
Method: as §1, §2

[18] = system: Staphylococcus aureus NCTC10649M; details: organism code EE, BHI agar, 35-37 °C, 20 to 24 hours
Method: as §1, §2

[19] = system: Staphylococcus aureus CMX 553; details: organism code FF, BHI agar, 35-37 °C, 20 to 24 hours
Method: as §1, §2

[20] = system: Staphylococcus epidermidis 3519; details: organism code HH, BHI agar, 35-37 °C, 20 to 24 hours
Method: as §1, §2

[21] = system: Streptococcus Pheumoniae GYR 1171; details: organism code YY, BHI agar, 35-37 °C, 20 to 24 hours
Method: as §1, §2

Escherichia coli SS = details: organism code RR, BHI agar, 35-37 °C, 20 to 24 hours
Method: as §1, §2

[22] = system: Staphylococcus aureus A5177; parameters: unit not given here; details: organism code BB, BHI agar, 35-37 °C, 20 to 24 hours
Method: as §3, §4, §5

[23] = system: Mycobacterium smegmatis ATCC 114; parameters: unit not given here; details: organism code UU, BHI agar, 35-37 °C, 20 to 24 hours
Method: as §3, §4, §5

Row | Structure (SMILES) | minimum inhibitory concentration (MIC) [1] | minimum inhibitory concentration (MIC) [2] | minimum inhibitory concentration (MIC) [3] | minimum inhibitory concentration (MIC) [4] | minimum inhibitory concentration (MIC) [5] | minimum inhibitory concentration (MIC) [6] | minimum inhibitory concentration (MIC) (Escherichia coli DC-2) | minimum inhibitory concentration (MIC) [7] | minimum inhibitory concentration (MIC) [8] | minimum inhibitory concentration (MIC) [9] | minimum inhibitory concentration (MIC) (Candida albicans CCH 442) | minimum inhibitory concentration (MIC) [10] | minimum inhibitory concentration (MIC) (Escherichia coli JUHL) | minimum inhibitory concentration (MIC) [11] | minimum inhibitory concentration (MIC) [12] | minimum inhibitory concentration (MIC) [13] | minimum inhibitory concentration (MIC) [14] | minimum inhibitory concentration (MIC) [15] | minimum inhibitory concentration (MIC) [16] | minimum inhibitory concentration (MIC) [17] | further results
1 | CC[C@H]1OC(=O)[C@H](C)[C@@H](O[C@H]2C[C@@](C)(OC)[C@@H](O)[C@H](C)O2)[C@H](C)[C@@H](O[C@@H]2O[C@H](C)C[C@H](N(C)C)[C@H]2O)[C@@]2(C)C[C@@H](C)C(=O)[C@H](C)[C@H]3N(CC(O)CC=CCO2)C(=O)O[C@]13C (stereo partly drawn) [Example 19, Compound of Formula (I), R^p is H, m is 1, A is absent, B is -CHOH-(CH2)q-, q is 1, D is absent, E is -(CH2)r-CH=CH-, r is 0, n is 1] | 0.39 | 0.05 | 0.02 | 0.05 | 0.03 | >100 | >100 | >128 | >100 | >100 | >100 | 12.5 | 25 | 16 | 0.78 | 0.78 | 0.05 | 0.1 | 8 | 0.05 | minimum inhibitory concentration (MIC) [18]: 0.78; minimum inhibitory concentration (MIC) [19]: 0.78; minimum inhibitory concentration (MIC) [20]: 0.78; minimum inhibitory concentration (MIC) [21]: 0.03; minimum inhibitory concentration (MIC) (Escherichia coli SS): 0.78; minimum inhibitory concentration (MIC) [22]: 3.1; minimum inhibitory concentration (MIC) [23]: 0.39
2 | CC[C@H]1OC(=O)[C@H](C)[C@@H](O[C@H]2C[C@@](C)(OC)[C@@H](O)[C@H](C)O2)[C@H](C)[C@@H](O[C@@H]2O[C@H](C)C[C@H](N(C)C)[C@H]2O)[C@@]2(C)C[C@@H](C)C(=O)[C@H](C)[C@H]3N(CCCCO2)C(=O)O[C@]13C [Example 15, Compound of Formula (I), R^p is H, m is 3, A is absent, B is absent, D is absent, E is absent, n is 1] | 0.39 | 0.05 | 0.05 | 0.1 | 0.03 | >100 | >100 | >128 | >100 | >100 | >100 | 6.2 | >100 | 16 | 0.39 | 0.39 | 0.1 | 0.1 | 32 | 0.05 | minimum inhibitory concentration (MIC) [18]: 0.78; minimum inhibitory concentration (MIC) [19]: 0.39; minimum inhibitory concentration (MIC) [20]: 0.39; minimum inhibitory concentration (MIC) [21]: 0.03; minimum inhibitory concentration (MIC) (Escherichia coli SS): 3.1; minimum inhibitory concentration (MIC) [22]: 3.1; minimum inhibitory concentration (MIC) [23]: 1.56
